In US20250129054A1 (Terran Biosciences Inc., priority 2022, published 2025):

Key:
[1] = system: post-traumatic stress disorder (PTSD); experiment: Double-blind, randomized, placebo-controlled clinical trial of methylone-assisted psychotherapy in PTSD; assay type: in vivo, human; details: at Study Conclusion
Procedure: A multicenter, randomized, double-blind, placebo-controlled trial is conducted to assess the efficacy and safety of methylone-assisted psychotherapy versus psychotherapy with placebo control in participants diagnosed with at least moderate post-traumatic stress disorder (PTSD).
This multicenter, randomized, double-blind, placebo-controlled trial is conducted at various sites in the United States with IRB approval from each study site. A flexible dose of methylone hydrochloride salt or placebo, followed by a supplemental half-dose unless contraindicated by patient's previous response or medical history, is also administered during the Treatment Period with psychotherapy in at least 3 blinded monthly Experimental Sessions. The Supplemental Dose extends the duration of drug effects on the participants during an Experimental Session. Methylone test groups are further subdivided into specific groups receiving only racemic methylone hydrochloride salt, S-methylone hydrochloride salt, or R-methylone hydrochloride salt. An optional Risk Evaluation and Mitigation Strategy (REMS) Protocol may be implemented for the racemic methylone, S-methylone, and placebo-groups. The Treatment Period lasts for approximately 12 weeks. During the Treatment Period, each Experimental Session is followed by three Intervening Sessions of non-drug psychotherapy. Each Experimental Session involves an overnight stay. The Primary Outcome measure, the change in Clinician Administered PTSD Scale for DSM-5 (CAPS-5), is determined by a blinded Independent Rater (IR) pool multiple times throughout the study. The study consists of separate periods for each participant. Initially, prospective participants undergo a Screening Period involving an initial eligibility assessment, a medical history intake, informed consent, and enrollment of eligible participants. Next, a Preparation Period is undertaken for enrolled participants involving medication tapering and clinical baseline assessments to confirm each participant meets enrollment criteria. As part of the Preparation Period, a detailed assessment of co-morbidities to PTSD is recorded. Participants may remain on prescribed courses of selective serotonin reuptake inhibitor (SSRI) or serotonin and norepinephrine reuptake inhibitor (SNRI) treatment. Dosages and/or frequency of administration of a prescribed SSRI or SNRI may be adjusted to fit within study parameters. Participants may be required to taper a prescribed course of medication in order to maintain eligibility within the study. The Treatment Period consists of three monthly Experimental Sessions and associated Intervening Sessions of integrative behavioral psychotherapy. The Treatment Period lasts approximately 12 weeks. Following the Treatment Period is a Follow-up Period and Study Conclusion. During the Follow-up Period and Study Conclusion, participants complete 4 weeks with no study visits, followed by a Study Conclusion visit.
This study compares the effects of three blinded Experimental Sessions of psychotherapy in combination with flexible doses of methylone or placebo administered as described below. Non-drug preparatory and intervening psychotherapy sessions are also included. Patient's weight is determined for dosage calculation. Initial dose is 100 mg unless this will result in a dosage of less than 1.5 mg/kg of patient weight. Initial dose thereby adjusted upward in 25 mg increments to deliver the lowest dose possible of at least 1.5 mg/kg of patient weight. Initial dose for Experimental Session 2 and 3 is cumulative dose calculated by adding the initial dose plus REMS protocol dose used the previous Experimental Session for each patient.
Randomization occurs prior to the initiation of Experimental Session 1. Each participant is provided the next randomized number in a sequence by a blinded study monitor. […]

[2] = system: rat elevated zero maze model of anxiety; experiment: Rat elevated zero maze model of anxiety (% time on open areas, stretched attend postures); assay type: in vivo, Sprague-Dawley rats
Text: The rat zero-maze model is a refined alternative to the plus-maze, the most widely used animal model of anxiety, and consists of an elevated annular platform, divided equally into four quadrants. Two opposite quadrants are enclosed by Perspex walls on both the inner and the outer edges of the platform, while the remaining two opposite quadrants are open being enclosed only by a Perspex “lip”. Animals will show a preference for the closed areas, and avoidance of the open sections is assumed to stem from a rodent's natural aversion to open, exposed spaces. The primary index of anxiety, which reflect changes in open arm preference, is the percentage of time spent on the open areas. A reduction in the amount of activity on the open areas is considered to reflect an increase in anxiety. Other, ethologically-based behaviours are also assessed as indices of anxiety. One of the most important is stretched attend postures (SAP) from closed to open quadrants. […] Shepherd, J K; et al., (1994) Behavioural and pharmacological validation of the elevated “zero-maze” as an animal model of anxiety. Psychopharmacol., 116:56-64.
Male Sprague-Dawley 200-250 g (Envigo UK) rats were used. Animals were group-housed (5 per cage; cage size: 40×40×20 cm) in a temperature-controlled environment (22±2° C.), under a 12 h light-dark cycle (lights on: 08:00 hours) for one week prior to testing. Food and water were freely available. Number of animals per group=5. Animals were moved into the experimental room 16-24 hours before testing.
The elevated 0-maze comprises a black Perspex annular platform (105 cm diameter, 10 cm width) elevated to 65 cm above ground level, divided equally into four quadrants. Two opposite quadrants are enclosed by clear red Perspex walls (27 cm high) on both the inner and outer edges of the platform, while the remaining two opposite quadrants are surrounded only by a Perspex “lip” (1 cm high) which serves as a tactile guide to animals on these open areas.
Subjects were weighed and tail marked before being injected. After a specified pre-treatment time, subjects were placed in a closed quadrant and a 5-min test period were recorded on videotape for subsequent analysis. The maze were cleaned with 5% methanol/water solution and dried thoroughly between test sessions. Behavioural measures comprise percentage time spent on the open areas (% TO) and frequency of stretched attend postures (SAP) from closed to open quadrants. Since the control groups were all treated identically with the same vehicle these were combined to increase power. The Chlordiazepoxide groups were also treated identically with the same dose so these were also combined to increase power. Animals are scored as being in the open area when all four paws were in an open quadrant and in the closed area only when all four paws have passed over the open-closed divide. All testing were carried out between 9.00 and 16.00 hours.
For each study, a 1-way ANOVA was conducted across vehicle, CDP, and drug treatment groups. Each group was compared to the vehicle group and a p-value for treatment determined by Fishers Least Significant Difference (LSD) test. This analysis was performed in GraphPad Prism (Version 9).
Intraperitoneal (IP): Racemic methylone HCl was formulated in Vehicle 1 (Saline) for injection to concentrations of 1, 3 and 6 mg/mL to provide doses of 5, 15 and 30 mg/kg when administered ip in 5 mL/kg dosing volumes.
Intraperitoneal (IP): S-methylone HCl was formulated in Vehicle 1 (Saline) for injection to concentrations of 0.5, 1, 1.5, 3 and 6 mg/mL to provide doses of 2.5, 5, 7.5, 15 and 30 mg/kg when administered ip in 5 mL/kg dosing volumes.
Intraperitoneal (IP): R-methylone HCl was formulated in Vehicle 1 (Saline) for injection to concentrations of 1, 3 and 6 mg/mL to provide doses of 5, 15 and 30 mg/kg when administered ip in 5 mL/kg dosing volumes. […]

[3] = compared to placebo-treated controls
[4] = 30 mg/kg ip, 30 min pretreatment, vs vehicle and chlordiazepoxide 6 mg/kg, male SD rats
[5] = specific (sufficient) doses ip, compared with chlordiazepoxide 6 mg/kg

CNC(C)C(=O)c1ccc2c(c1)OCO2 (racemic) [racemic methylone]
daytime sleepiness as measured by ESS [1]: significant improvement in lessening daytime sleepiness
clinician-rated functional impairment score as measured by SDS [1, 3]: significant improvement
depression as measured by HAM-D [1, 3]: significant improvement
change in CAPS-5 assessment ([1]; with psychotherapy, compared to the placebo group, PTSD participants): significant mean reduction
time spent in the open arms ([2]; 5 mg/kg ip, 30 min pretreatment, vs vehicle, male SD rats): decrease in time spent in the open arms vs placebo
frequency of SAPs ([2]; 15 mg/kg ip, 30 min pretreatment, male SD rats): dose dependent decrease in SAPs
time spent in the open arms ([2]; 15 mg/kg ip, 30 min pretreatment, vs vehicle, male SD rats): no difference from placebo
frequency of SAPs [2, 4]: decrease in SAPs
time spent in the open arms [2, 4]: significant decrease in time spent in the open arms
anxiogenic effect ([2]; across the doses tested, ip, male SD rats): show anxiogenic effects at lower doses
frequency of SAPs [2, 5]: decreased the frequency of SAPs as effectively as the benzodiazepine chlordiazepoxide
time in the open arms [2, 5]: increase time in the open arms
